Where two headings read alike, the source gives them in different places. Where no end group is shown, it is not given here.
Legend:
[1] = tested on: transplanted tumor cells of human osteosarcoma MG63; settings: xenograft tumor after 4 weeks of administration; taxol group, each dose group of sp2
Experimental: 2. AnnexinV-FITC cell apoptosis (annexinV)
2) 50,000-100,000 resuspended cells was taken, and centrifuged at 1000 g for 5 min. The supernatant was discarded, and 195 μl of AnnexinV-FITC binding solution was added to gently resuspend the cells.
6) Immediately flow cytometry detection was performed, wherein AnnexinV-FITC was green fluorescence, and PI was red fluorescence.

[2] = Kunming mice
Experimental: (§1) 20 Kunming mice, healthy adults, half male and half male, weight 20 g±2%
(§2) 4) Route of administration: tail vein injection;
(§3) 5) Administration method: animal acute toxicity test with a single dose was to study the toxic reaction of the animal within a certain period of time after the animal was given the test substance once or multiple times within 24 h. In this experiment, 3 doses within 24 h were used, namely 0.5 mL/each, 3 times/day, with an interval of 3 h;
(§4) 6) Observing and recording the reaction symptoms of the test animals for 14 consecutive days with twice a day on the day of administration and the next day, and then once a day;
(§5) 7) At the end of the experiment, the animals were killed by cervical dislocation. All the test animals were dissected to observe whether their tissues and organs were changed in volume, color, texture, etc. and recorded;

in vivo = settings: both, Kunming, mouse, iv, 2000 mg/kgBW
Experimental: as §1, §2, §3, §4, §5

[3] = 1 d after 2000 mg/kgBW tail vein
[4] = 3 d after 2000 mg/kgBW tail vein
[5] = 5 d after 2000 mg/kgBW tail vein
[6] = 7 d after 2000 mg/kgBW tail vein
[7] = 9 d after 2000 mg/kgBW tail vein
[8] = 11 d after 2000 mg/kgBW tail vein
[9] = 13 d after 2000 mg/kgBW tail vein

Row | Compound | tumor cell apoptosis compared to the model group [1] | animal weight, female (group value) [2, 3] | animal weight, male (group value) [2, 3] | animal weight, female (group value) [2, 4] | animal weight, male (group value) [2, 4] | animal weight, female (group value) [2, 5] | animal weight, male (group value) [2, 5] | animal weight, female (group value) [2, 6] | animal weight, male (group value) [2, 6] | animal weight, female (group value) [2, 7] | animal weight, male (group value) [2, 7] | animal weight, female (group value) [2, 8] | animal weight, male (group value) [2, 8] | animal weight, female (group value) [2, 9] | animal weight, male (group value) [2, 9] | maximum non-toxic dose administered intravenously ([2]; tail vein, observed 14 days) | NOAEL at 336 h (in vivo)
1 | CC(=O)O[C@H]1C(=O)[C@@]2(C)[C@H]([C@H](OC(=O)c3ccccc3)[C@]3(O)C[C@H](OC(=O)[C@H](O)[C@@H](NC(=O)c4ccccc4)c4ccccc4)C(C)=C1C3(C)C)[C@]1(OC(C)=O)CO[C@@H]1C[C@@H]2O [taxol] | increase the tumor cell apoptosis rate (P<0.05) | – | – | – | – | – | – | – | – | – | – | – | – | – | – | – | –
2 | RVLNGPEEEAAAPAE [sp2] | – | 26.458 | 27.565 | 28.245 | 31.131 | 29.135 | 33.177 | 30.603 | 35.699 | 31.884 | 37.611 | 33.355 | 38.017 | 33.25 | 38.456 | 2000 mg/kgBW | 2000 mg/kg
